Where a name gives a salt, the structure may show the parent alone.
What was measured:
human α1b-adrenoceptor = biological target: T1, human α1b-adrenoceptor (Homo sapiens, UniProt P35368); experiment: [3H]Prazosin binding, cloned human α1b-adrenoceptor in CHO cell membranes; settings: CHO membranes; read-out: Affinity (Ki) α1b, human cloned receptors
T1 construct: expressed in transfected cells
T1 sequence (P35368 1-520): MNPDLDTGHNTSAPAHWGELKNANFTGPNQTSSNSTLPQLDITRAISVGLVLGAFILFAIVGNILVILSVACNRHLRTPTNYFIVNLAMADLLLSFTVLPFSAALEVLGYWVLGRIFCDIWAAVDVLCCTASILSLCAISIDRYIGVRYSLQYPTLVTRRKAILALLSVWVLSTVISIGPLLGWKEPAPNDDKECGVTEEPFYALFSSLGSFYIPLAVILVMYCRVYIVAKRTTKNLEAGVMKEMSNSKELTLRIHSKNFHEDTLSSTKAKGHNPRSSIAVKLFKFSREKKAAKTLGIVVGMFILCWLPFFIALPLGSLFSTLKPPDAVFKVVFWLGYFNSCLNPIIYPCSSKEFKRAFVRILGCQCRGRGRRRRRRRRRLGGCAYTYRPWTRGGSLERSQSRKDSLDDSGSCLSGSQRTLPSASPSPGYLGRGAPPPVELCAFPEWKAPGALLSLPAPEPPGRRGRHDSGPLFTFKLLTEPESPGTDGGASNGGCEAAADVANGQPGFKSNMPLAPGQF
Experimental: (§1) Binding to cloned human α1-adrenoceptor subtypes was performed in membranes from CHO cells (Chinese hamster ovary cells) transfected by electroporation with DNA expressing the gene encoding each α1-adrenoceptor subtype. […] The incubation was stopped by addition of ice-cold Tris buffer and rapid filtration through 0.2% polyethyleneimine-pretreated Whatman GF/B or Schleicher & Schuell GF52 filters.
(§2) Data are expressed as mean Ki. All patents and other references cited herein are incorporated by reference in their entirety.

human α1d-adrenoceptor = biological target: T2, human α1d-adrenoceptor (Homo sapiens, UniProt P25100); experiment: [3H]Prazosin binding, cloned human α1d-adrenoceptor in CHO cell membranes; settings: read-out: Affinity (Ki) α1d, human cloned receptors
T2 construct: expressed in transfected cells
T2 sequence (P25100 1-572): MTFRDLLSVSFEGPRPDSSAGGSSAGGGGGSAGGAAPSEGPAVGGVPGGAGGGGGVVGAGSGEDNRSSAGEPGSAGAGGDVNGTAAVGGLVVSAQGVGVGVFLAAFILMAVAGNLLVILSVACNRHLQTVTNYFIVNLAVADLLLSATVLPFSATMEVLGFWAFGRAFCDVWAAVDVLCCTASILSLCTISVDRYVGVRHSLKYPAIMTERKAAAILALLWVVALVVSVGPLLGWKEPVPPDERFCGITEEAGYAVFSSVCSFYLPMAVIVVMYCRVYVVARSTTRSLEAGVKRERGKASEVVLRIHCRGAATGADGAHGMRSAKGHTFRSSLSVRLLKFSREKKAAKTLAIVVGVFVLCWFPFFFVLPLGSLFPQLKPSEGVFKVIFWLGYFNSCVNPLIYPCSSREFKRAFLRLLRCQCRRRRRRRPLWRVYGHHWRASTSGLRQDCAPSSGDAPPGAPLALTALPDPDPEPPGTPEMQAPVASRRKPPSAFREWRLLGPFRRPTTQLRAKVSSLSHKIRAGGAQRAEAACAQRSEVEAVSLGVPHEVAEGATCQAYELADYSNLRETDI
Experimental: as §1, §2

human α1a-adrenoceptor = biological target: T3, human α1a-adrenoceptor (Homo sapiens, UniProt P35348); experiment: biochemical
T3 sequence (P35348 1-466): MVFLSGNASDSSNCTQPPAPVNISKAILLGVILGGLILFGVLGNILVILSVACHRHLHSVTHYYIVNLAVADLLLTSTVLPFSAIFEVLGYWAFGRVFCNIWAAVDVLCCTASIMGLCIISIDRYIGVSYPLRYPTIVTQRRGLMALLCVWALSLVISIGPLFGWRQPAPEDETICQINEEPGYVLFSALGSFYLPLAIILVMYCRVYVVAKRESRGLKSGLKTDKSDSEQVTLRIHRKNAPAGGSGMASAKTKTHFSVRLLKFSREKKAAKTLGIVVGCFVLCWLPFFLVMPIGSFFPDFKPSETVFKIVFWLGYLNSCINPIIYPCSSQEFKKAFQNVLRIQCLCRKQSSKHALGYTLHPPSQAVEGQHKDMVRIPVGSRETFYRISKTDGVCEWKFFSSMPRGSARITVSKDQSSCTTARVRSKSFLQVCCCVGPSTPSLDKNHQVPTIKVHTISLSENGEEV

bovine α1a-adrenoceptor = biological target: T4, bovine α1a-adrenoceptor (Bos taurus, UniProt P18130); experiment: [3H]Prazosin binding, bovine α1a-adrenoceptor in COS-7 cell membranes
T4 construct: expressed in transfected cells; host or cells: COS-7 cells (transient), membranes
T4 sequence (P18130 1-466): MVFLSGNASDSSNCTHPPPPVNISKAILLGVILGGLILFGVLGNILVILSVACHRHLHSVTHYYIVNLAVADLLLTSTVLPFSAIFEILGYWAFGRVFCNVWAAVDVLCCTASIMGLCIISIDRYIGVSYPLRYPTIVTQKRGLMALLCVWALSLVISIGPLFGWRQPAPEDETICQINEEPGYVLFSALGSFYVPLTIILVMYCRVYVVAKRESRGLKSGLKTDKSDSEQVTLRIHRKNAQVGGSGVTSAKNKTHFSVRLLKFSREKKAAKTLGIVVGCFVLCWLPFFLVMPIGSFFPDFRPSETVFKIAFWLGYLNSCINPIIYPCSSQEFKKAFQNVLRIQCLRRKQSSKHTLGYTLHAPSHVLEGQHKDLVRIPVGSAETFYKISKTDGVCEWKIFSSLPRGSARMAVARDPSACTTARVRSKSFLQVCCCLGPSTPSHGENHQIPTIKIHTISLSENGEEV
Experimental: The incubation was stopped by addition of ice-cold Tris buffer and rapid filtration through 0.2% polyethyleneimine pretreated Whatman GF/B or Schleicher & Schuell GF52 filters.
as §2

anaesthetised rats = experiment: Intracavernous and blood pressure recording in rats; assay type: in vivo, rat; settings: for decrease of blood pressure: after injection of 1000 μg/kg intracavernous; for effect on ICP (in words): intracavernous injection; for hypotension (in words, FIG. 1): marked hypotension defined as decrease of blood pressure equal to or higher than 40%
Experimental: Rats were anaesthetised by an intraperitoneal injection of urethane (1.5 g/kg in sterile saline) and placed on an homeothermic blanket. Their temperature was maintained at 37° C. Rats were tracheotomized to facilitate spontaneous breathing and to prevent aspiration of saliva. A catheter filled with heparinized saline (25 IU/ml) was placed into the carotid to record mean blood pressure (BP, mmHg). The penis was desheathed and the corpora cavernosa were exposed. A 25-gauge stainless-steel needle was inserted into one corpus cavernosum to record intracavernous pressure (ICP in mmHg). […] Pressure catheters were connected to pressure transducers (Model 750, Elcomatic Ltd, Glasgow, UK).
Following a resting period of 10 minutes, the compound solvent was delivered intracavernously (50 μl/injection). Then, increasing doses of one compound were injected every ten minutes by the same route. Five injections (one solvent plus four cumulative doses) were performed in each rat, and five rats were used for the study of one compound. For each injection and for each compound, mean BP averaged over the ten minutes following the injection was measured. The maximal ICP value reached during the ten-minute period following an injection was also recorded. In these experiments, all the compounds tested were dissolved and diluted in propylene glycol-Sorensen solvent.

anaesthetised dogs [1] = settings: dog, in vivo
Experimental: (§3) Male beagle dogs were anaesthetised with pentobarbital sodium (i.v. Nembutal, 35 mg/kg for induction and 4 mg/kg/h for maintenance) and intubated with an endotracheal cuffed tube to facilitate free ventilation. A collateral of the left femoral vein was cannulated with a PE catheter for infusion of the anaesthetic. Systemic BP was monitored via a Mikro-tip 6F (Millar Instruments) pressure transducer introduced into the aortic arch through the right common carotid artery. ICP was measured by means of a 20-gauge needle placed into the left or right corpus cavernosum and the same needle was used for intracavernous injection of the drugs. The needle was attached to a catheter filled with heparinized saline (25 IU/mL). […] The compounds to be tested were injected intracavernously in a volume of 0.5 ml and, after each injection, the needle was flushed with 0.5 ml of saline. The vehicles for compound dissolution were tested before the first dose of each drug. The compounds were administered in a cumulative way, with a 30-minute interval between doses. ICP (mmHg) was measured at the peak effect after the administration of the compounds. The duration of tumescence (DT, min) was measured from the beginning of the rise of ICP over its basal value up to the return to baseline. The systolic blood pressure and diastolic blood pressure (mmHg) were measured at the peak effect after the administration of compounds, in order to evaluate the effects of the compounds on BP independently from the effects on ICP. Moreover, the systolic blood pressure was measured at the time of maximal ICP value after intracavernous injection, to evaluate the ICP/BP ratios. […] The data were reported as mean ±s.e. of the mean, or percent variation (±s.e.) of the basal values.

anaesthetised dogs [2] = experiment: Intracavernous and blood pressure recording in dogs; settings: for increase of ICP in comparison with basal ICP values: 1000 μg/kg (1000 μg given for prazosin, phentolamine) intracavernous; for effect on ICP (in words): intracavernous injection
Experimental: as §3

COc1cc2nc(N3CCN(C(=O)COc4c(OC)cccc4C(C)C)C4CCCCC43)nc(N)c2cc1OC (racemic) [Example 4, 4-Amino-6,7-dimethoxy-2-[(±)-4-(2-isopropyl-6-methoxyphenoxyacetyl)-cis-octahydro-1-quinoxalinyl]quinazoline hydrochloride.2.5H2O]
Ki (human α1b-adrenoceptor): 0.16 nM

COc1cc2nc(N3CCN(C(=O)c4ccc(C)o4)C4CCCCC43)nc(N)c2cc1OC (racemic) [Example 5, 4-Amino-6,7-dimethoxy-2-[(±)-4-(5-methyl-2-furoyl)-cis-octahydro-1-quinoxalinyl]-quinazoline hydrochloride.2.5H2O]
Ki (human α1b-adrenoceptor): 0.24 nM

COc1cc2nc(N3CCN(C(=O)OCc4ccccc4)C4CCCCC43)nc(N)c2cc1OC (racemic) [Example 7, 4-Amino-6,7-dimethoxy-2-[(±)-4-benzyloxycarbonyl-cis-octahydro-1-quinoxalinyl]-quinazoline hydrochloride.0.75H2O]
Ki (human α1b-adrenoceptor): 0.65 nM

COc1cc2nc(N3CCN(C(=O)c4ccco4)[C@H](C(=O)NC(C)(C)C)C3)nc(N)c2cc1OC [Compound C, 4-Amino-6,7-dimethoxy-2-[(3S)-3-(t-butylcarbamoyl)-4-(2-furoyl)-1-piperazinyl]-quinazoline]
Ki (human α1b-adrenoceptor): 1.76 nM | Ki (human α1d-adrenoceptor): 25.1 nM | Ki (human α1a-adrenoceptor): 94.1 nM

Cc1ccc(N(CC2=NCCN2)c2cccc(O)c2)cc1 [Phentolamine]
Ki (bovine α1a-adrenoceptor): 3.22 nM | BP (anaesthetised rats; 10 μg/kg intracavernous): 79.8 ± 7.3 mmHg | ICP (anaesthetised rats; 10 μg/kg intracavernous): 12.6 ± 1.7 mmHg | BP (anaesthetised rats; 30 μg/kg intracavernous): 72.2 ± 4.3 mmHg | ICP (anaesthetised rats; 30 μg/kg intracavernous): 10.1 ± 1.4 mmHg | BP (anaesthetised rats; 100 μg/kg intracavernous): 61.1 ± 7.0 mmHg | ICP (anaesthetised rats; 100 μg/kg intracavernous): 10.5 ± 1.4 mmHg | BP (anaesthetised rats; 300 μg/kg intracavernous): 63.0 ± 2.2 mmHg | ICP (anaesthetised rats; 300 μg/kg intracavernous): 12.5 ± 2.3 mmHg | BP (anaesthetised rats; 1000 μg/kg intracavernous): 59.8 ± 3.6 mmHg | ICP (anaesthetised rats; 1000 μg/kg intracavernous): 20.6 ± 2.1 mmHg | decrease of blood pressure (anaesthetised rats): 30% | effect on ICP (in words) (anaesthetised rats): did not modify ICP up to 300 μg/kg | hypotension (in words, FIG. 1) (anaesthetised rats): marked hypotension | hypotension (in words) (anaesthetised dogs [1]): relevant hypotension | ICP (anaesthetised dogs [2]; 10 μg/kg intracavernous): 24.0 ± 0.0 mmHg | ICP (anaesthetised dogs [2]; 30 μg/kg intracavernous): 20.0 ± 2.3 mmHg | ICP (anaesthetised dogs [2]; 300 μg/kg intracavernous): 16.0 ± 2.3 mmHg | increase of ICP in comparison with basal ICP values (anaesthetised dogs [2]): 43 mmHg | DT (duration of tumescence) (anaesthetised dogs [2]; 1000 μg/kg intracavernous): 4.2 ± 2.1 min | ICP (anaesthetised dogs [2]; 1000 μg/kg intracavernous): 62.7 ± 24.3 mmHg | effect on ICP (in words) (anaesthetised dogs [2]): increased ICP at doses that induced substained hypotension

COc1cc2nc(N3CCN(C(=O)c4ccco4)CC3)nc(N)c2cc1OC [Prazosin]
BP (anaesthetised rats; 10 μg/kg intracavernous): 59.4 ± 7.7 mmHg | ICP (anaesthetised rats; 10 μg/kg intracavernous): 20.1 ± 6.4 mmHg | BP (anaesthetised rats; 30 μg/kg intracavernous): 60.0 ± 7.4 mmHg | ICP (anaesthetised rats; 30 μg/kg intracavernous): 14.9 ± 3.3 mmHg | BP (anaesthetised rats; 100 μg/kg intracavernous): 56.8 ± 7.9 mmHg | ICP (anaesthetised rats; 100 μg/kg intracavernous): 19.0 ± 6.6 mmHg | BP (anaesthetised rats; 300 μg/kg intracavernous): 41.3 ± 3.0 mmHg | ICP (anaesthetised rats; 300 μg/kg intracavernous): 18.9 ± 6.8 mmHg | BP (anaesthetised rats; 1000 μg/kg intracavernous): 43.7 ± 4.1 mmHg | ICP (anaesthetised rats; 1000 μg/kg intracavernous): 26.9 ± 3.5 mmHg | decrease of blood pressure (anaesthetised rats): 41% | effect on ICP (in words) (anaesthetised rats): unable to elicit any ICP increase | hypotension (in words, FIG. 1) (anaesthetised rats): marked hypotension | hypotension (in words) (anaesthetised dogs [1]): marked hypotension | ICP (anaesthetised dogs [2]; 30 μg/kg intracavernous): 25.5 ± 6.3 mmHg | ICP (anaesthetised dogs [2]; 100 μg/kg intracavernous): 27.0 ± 8.7 mmHg | ICP (anaesthetised dogs [2]; 300 μg/kg intracavernous): 37.5 ± 5.0 mmHg | decrease of diastolic blood pressure (anaesthetised dogs [2]; 1000 μg intracavernous): 71 mmHg | increase of ICP in comparison with basal ICP values (anaesthetised dogs [2]): 36 mmHg | ICP (anaesthetised dogs [2]; 1000 μg/kg intracavernous): 52.5 ± 5.0 mmHg | effect on ICP (in words) (anaesthetised dogs [2]): increased ICP at doses that induced substained hypotension

— patent US6953800B2, “Use of selective antagonists of the α1B-adrenergic receptor for improvement of sexual dysfunction” (Recordati S.A. Chemical, priority 1999, dated 2005)
